Measurements: patent US6511670B1, “(poly)thiaalkynoic compounds and pharmaceutical/cosmetic compositions comprised thereof” (Societe L'Oreal S.A., priority 1999, dated 2003)

Key:
Format in all cases: cell-based
PPAR-α = target: T1, PPAR-α (Homo sapiens, UniProt Q07869); test: transactivation test of PPAR-type receptors (luciferase reporter, cotransfected HeLa cells), PPAR-α; details: HeLa cells cotransfected with PPAR-α expression vector and PPRE-luciferase reporter, 24 hours, n.a. = not active; for AC50: concentration giving 50% of the activity of the reference molecule; for α Ymax %: relative to Reference 1
T1 construct: expressed in transfected cells; host or cells: HeLa cells
T1 sequence (Q07869 1-468): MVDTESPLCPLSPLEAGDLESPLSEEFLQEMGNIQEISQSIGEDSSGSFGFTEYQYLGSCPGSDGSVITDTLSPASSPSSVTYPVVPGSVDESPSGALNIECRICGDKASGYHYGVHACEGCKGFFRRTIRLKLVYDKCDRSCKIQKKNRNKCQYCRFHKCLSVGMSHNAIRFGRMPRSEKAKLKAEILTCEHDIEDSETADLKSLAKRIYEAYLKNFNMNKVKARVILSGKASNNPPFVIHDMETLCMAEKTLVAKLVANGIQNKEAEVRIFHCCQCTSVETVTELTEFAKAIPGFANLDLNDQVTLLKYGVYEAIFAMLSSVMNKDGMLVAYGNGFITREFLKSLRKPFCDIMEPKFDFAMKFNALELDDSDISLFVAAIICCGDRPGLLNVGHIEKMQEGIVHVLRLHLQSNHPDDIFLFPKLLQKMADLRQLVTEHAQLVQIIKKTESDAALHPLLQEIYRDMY
Method: (§1) This activity is determined with the aid of a reporter enzyme (luciferase) for the activation due to the compound via one of the PPAR receptors, and more particularly of the PPAR-α type.
(§2) The biological tests carried out corresponded to those described in the application. […] Thus, the activating power via PPAR-α, PPAR-γ or PPAR-δ of molecules was evaluated with a transactivation test in which HeLa cells were cotransfected with an expression vector encoding these receptors and a reporter plasmid containing a PPRE response element cloned upstream of a portion of a promoter of the SV40 virus and of the luciferase gene. The cotransfected cells were treated for 24 hours with the molecules to be tested and the activity of the luciferase was determined by luminescence.

PPAR-δ = target: T2, PPAR-δ (Homo sapiens, UniProt Q03181); test: transactivation test of PPAR-type receptors (luciferase reporter, cotransfected HeLa cells), PPAR-δ; details: HeLa cells cotransfected with PPAR-δ expression vector and PPRE-luciferase reporter, 24 hours, n.a. = not active; for AC50: concentration giving 50% of the activity of the reference molecule; for δ Ymax %: relative to Reference 2
T2 construct: expressed in transfected cells; host or cells: HeLa cells
T2 sequence (Q03181 1-441): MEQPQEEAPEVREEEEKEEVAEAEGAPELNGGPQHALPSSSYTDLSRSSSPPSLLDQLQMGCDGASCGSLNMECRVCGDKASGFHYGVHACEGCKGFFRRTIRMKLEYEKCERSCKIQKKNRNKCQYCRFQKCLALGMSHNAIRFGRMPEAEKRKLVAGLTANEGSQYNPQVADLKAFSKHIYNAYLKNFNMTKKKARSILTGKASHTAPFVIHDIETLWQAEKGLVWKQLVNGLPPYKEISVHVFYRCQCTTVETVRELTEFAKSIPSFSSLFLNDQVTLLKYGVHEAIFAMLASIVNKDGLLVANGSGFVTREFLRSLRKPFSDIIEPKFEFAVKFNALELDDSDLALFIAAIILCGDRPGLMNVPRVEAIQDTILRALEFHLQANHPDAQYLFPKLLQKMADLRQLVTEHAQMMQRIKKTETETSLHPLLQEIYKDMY
Method: as §1, §2

PPAR-γ = target: T3, PPAR-γ (Homo sapiens, UniProt P37231); test: transactivation test of PPAR-type receptors (luciferase reporter, cotransfected HeLa cells), PPAR-γ; details: HeLa cells cotransfected with PPAR-γ expression vector and PPRE-luciferase reporter, 24 hours, n.a. = not active; for AC50: concentration giving 50% of the activity of the reference molecule; for γ Ymax %: relative to Reference 2
T3 construct: expressed in transfected cells; host or cells: HeLa cells
T3 sequence (P37231 1-505): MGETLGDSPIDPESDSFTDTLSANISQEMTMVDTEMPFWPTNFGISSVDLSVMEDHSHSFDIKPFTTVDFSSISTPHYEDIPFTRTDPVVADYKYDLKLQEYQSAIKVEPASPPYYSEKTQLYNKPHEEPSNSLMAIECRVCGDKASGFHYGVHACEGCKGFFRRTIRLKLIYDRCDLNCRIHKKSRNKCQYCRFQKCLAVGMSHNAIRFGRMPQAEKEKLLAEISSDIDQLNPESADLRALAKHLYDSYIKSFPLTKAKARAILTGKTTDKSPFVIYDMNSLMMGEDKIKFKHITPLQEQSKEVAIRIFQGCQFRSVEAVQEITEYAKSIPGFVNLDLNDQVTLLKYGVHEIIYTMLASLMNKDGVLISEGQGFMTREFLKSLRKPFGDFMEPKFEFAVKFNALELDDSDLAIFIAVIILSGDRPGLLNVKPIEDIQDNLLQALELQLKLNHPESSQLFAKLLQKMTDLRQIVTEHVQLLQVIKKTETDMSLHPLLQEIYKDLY
Method: as §1, §2

AC50 (PPAR-α) [µM] | α Ymax % (PPAR-α) [%] | AC50 (PPAR-δ) [µM] | δ Ymax % (PPAR-δ) [%] | AC50 (PPAR-γ) [µM] | γ Ymax % (PPAR-γ) [%] | SMILES
1.5 | 142 |  |  |  |  | CCCCCCCCCCC#CCSCC(=O)O [Example 10, 3-Thia-5-hexadecynoic Acid]
2.9 | 91 |  |  |  |  | CCCCCCCCSCC#CCSCC(=O)O [Example 8, 3,8-Dithia-5-hexadecynoic Acid]
3 | 138 |  |  |  |  | CCCCCC#CCC#CCC#CCSCC(=O)O [Example 21, 3-Thia-5,8,11-heptadecatriynoic Acid]
1 | 116 |  |  |  |  | CCCCCCCCC#CCC#CCSCC(=O)O [Example 14, 3-Thia-5,8-heptadecadiynoic Acid]
5 | 112 | 11 | 74 | 4 | 58 | CCCCCCCCC#CCC#CCC#CCSCC(=O)O [Comparative Example 2, 3-thia-5,8,11-eicosatriynoic acid]
4 | 128 | 7 | 125 | 3 | 83 | CCCCCC#CCC#CCC#CCC#CCSCC(=O)O [Comparative Example 1, 3-thia-5,8,11,14-eicosatetraynoic acid]
 | 100 |  |  |  |  | Cc1cccc(Nc2cc(Cl)nc(SCC(=O)O)n2)c1C [Reference 1, [4-chloro-6-(2,3-dimethylphenylamino)pyrimidin-2-ylsulfanyl]acetic acid]
